What was measured:
Type in all cases: in vivo
[1] = test system: transplanted Oryza sativa; assay: Test Example 1: effect on crop, application before weed generation in submerged conditions; settings: Seventeenth Table
Procedure, shortened: (§1)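 Pre-emergence application to water surface of submerged pots (4 cm depth, alluvial soil) on sowing day, with 2.5-leaf rice transplanted; emulsion diluted to g/ha rates. Grown in greenhouse at 25–30 °C; 0–5 herbicidal/crop-effect score after three weeks.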

[2] = test system: Stellaria media; assay: Test Example 4: herbicidal effect by application to foliage (diluvial soil, plastic box); settings: for P (Stellaria media) herbicidal effect: application herbicide amount 320 g/ha
Procedure, shortened: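 Plants were grown in sterilized diluvial soil in a greenhouse at 25-30° C for 14 days, then sprayed on stems and leaves with water-diluted emulsion formulation at set rates in g/ha. Weed control and crop injury were scored 3 weeks after treatment on a 0-5 herbicidal-ratio scale, from 0 (≤5%) to 5 (≥90%).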

[3] = test system: Scirpus juncoides; assay: Test Example 1: herbicidal activity, application before weed generation in submerged conditions; settings: Seventeenth Table
Procedure, shortened: as §1

[4] = test system: Echinochloa oryzacola Vasing.; assay: as above; settings: Seventeenth Table
Procedure, shortened: as §1

[5] = test system: Monochoria vaginalis; assay: as above; settings: Seventeenth Table
Procedure, shortened: as §1

[6] = test system: Cyperus difformis; assay: Test Example 3: herbicidal effect by application to foliage (Wagner pot, water depth 0.1-0.5 cm); settings: Nineteenth Table; for E (herbicidal effect grade): application to foliage; for E (Cyperus difformis) herbicidal ratio grade: application herbicide amount 320 g/ha
Procedure, shortened: (§2)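 Seeds were sown in alluvial soil in Wagner pots, grown for 14 days at 25–30 °C, then sprayed uniformly on foliage with the emulsified compound diluted to a given rate per hectare. Injury was graded three weeks after treatment from 0 (≤5%) to 5 (≥90%).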

[7] = test system: Leptochloa chinensis; assay: as above; settings: Nineteenth Table; for D (herbicidal effect grade): application to foliage; for D (Leptochloa chinensis) herbicidal ratio grade: application herbicide amount 320 g/ha
Procedure, shortened: as §2

[8] = test system: Echinochloa crus-galli var. crus-galli; assay: as above; settings: Nineteenth Table; for H (herbicidal effect grade): application to foliage; for H (Echinochloa crus-galli var. crus-galli) herbicidal ratio grade: application herbicide amount 320 g/ha
Procedure, shortened: as §2

[9] = test system: directly sowed Oryza sativa; assay: Test Example 3: effect on crop by application to foliage (Wagner pot, water depth 0.1-0.5 cm); settings: Nineteenth Table; for b (effect on crop grade): application to foliage; for b (directly sowed Oryza sativa) effect on crop grade: application herbicide amount 320 g/ha
Procedure, shortened: as §2

[10] = Application herbicide amount 141 g/ha
[11] = application herbicide amount 141 g/ha
[12] = Application herbicide amount 320 g/ha
[13] = Application herbicide amount 288 g/ha
[14] = application herbicide amount 288 g/ha

Compound	a: transplanted Oryza sativa (effect on crop grade) [1, 12]	P (Stellaria media) herbicidal effect ([2]; application to foliage)	B: Scirpus juncoides (herbicidal effect grade) [3, 12]	A: Echinochloa oryzicola Vasing. (herbicidal effect grade) [4, 12]	C: Monochoria vaginalis (herbicidal effect grade) [5, 12]	E (Cyperus difformis) herbicidal ratio grade [6]	D (Leptochloa chinensis) herbicidal ratio grade [7]	H (Echinochloa crus-galli var. crus-galli) herbicidal ratio grade [8]	b (directly sowed Oryza sativa) effect on crop grade [9]	further results
CCN(C)c1nnc2c(C(=O)Nc3nnnn3C)ccc(C(F)(F)F)n12 [2-088]										a: transplanted Oryza sativa (effect on crop grade) [1, 10]: 3 (Herbicidal ratio of 40% or more and less than 70%); herbicidal effect, P (Stellaria media) ([2]; application to foliage, 141 g/ha): 5 (Herbicidal ratio of 90% or more (almost completely withered)); B: Scirpus juncoides (herbicidal effect grade) [3, 10]: 5 (Herbicidal ratio of 90% or more (almost completely withered)); A: Echinochloa oryzicola Vasing. (herbicidal effect grade) [4, 10]: 5 (Herbicidal ratio of 90% or more (almost completely withered)); C: Monochoria vaginalis (herbicidal effect grade) [5, 10]: 5 (Herbicidal ratio of 90% or more (almost completely withered)); E (herbicidal effect grade) [6, 11]: 4 (Herbicidal ratio of 70% or more and less than 90%); D (herbicidal effect grade) [7, 11]: 5 (Herbicidal ratio of 90% or more (almost completely withered)); H (herbicidal effect grade) [8, 11]: 5 (Herbicidal ratio of 90% or more (almost completely withered)); b (effect on crop grade) [9, 11]: 3 (Herbicidal ratio of 40% or more and less than 70%)
CCSc1nnc2c(C(=O)Nc3nnc(C)o3)ccc(C(F)(F)F)n12 [1-032]	2 (Herbicidal ratio of 20% or more and less than 40%)	5 (Herbicidal ratio of 90% or more (almost completely withered))	3 (Herbicidal ratio of 40% or more and less than 70%)	5 (Herbicidal ratio of 90% or more (almost completely withered))	2 (Herbicidal ratio of 20% or more and less than 40%)	5 (Herbicidal ratio of 90% or more (almost completely withered))	5 (Herbicidal ratio of 90% or more (almost completely withered))	5 (Herbicidal ratio of 90% or more (almost completely withered))	2 (Herbicidal ratio of 20% or more and less than 40%)	
CSCc1nnc2c(C(=O)Nc3nnc(C)o3)ccc(C(F)(F)F)n12 [1-030]	0 (Herbicidal ratio of 5% or less (almost no effect))	5 (Herbicidal ratio of 90% or more (almost completely withered))	3 (Herbicidal ratio of 40% or more and less than 70%)	5 (Herbicidal ratio of 90% or more (almost completely withered))	3 (Herbicidal ratio of 40% or more and less than 70%)	5 (Herbicidal ratio of 90% or more (almost completely withered))	5 (Herbicidal ratio of 90% or more (almost completely withered))	5 (Herbicidal ratio of 90% or more (almost completely withered))	4 (Herbicidal ratio of 70% or more and less than 90%)	
Cc1nnc(NC(=O)c2ccc(C(F)(F)F)n3c(C[S+]([O-])CC(F)(F)F)nnc23)o1 (stereo not drawn) [1-038]	0 (Herbicidal ratio of 5% or less (almost no effect))	5 (Herbicidal ratio of 90% or more (almost completely withered))	2 (Herbicidal ratio of 20% or more and less than 40%)	2 (Herbicidal ratio of 20% or more and less than 40%)	1 (Herbicidal ratio of 5% or more and less than 20%)	4 (Herbicidal ratio of 70% or more and less than 90%)	5 (Herbicidal ratio of 90% or more (almost completely withered))	5 (Herbicidal ratio of 90% or more (almost completely withered))	2 (Herbicidal ratio of 20% or more and less than 40%)	
CCOCc1nnc2c(C(=O)Nc3nnc(C)o3)ccc(C(F)(F)F)n12 [1-027]	1 (Herbicidal ratio of 5% or more and less than 20%)	5 (Herbicidal ratio of 90% or more (almost completely withered))	3 (Herbicidal ratio of 40% or more and less than 70%)	5 (Herbicidal ratio of 90% or more (almost completely withered))	4 (Herbicidal ratio of 70% or more and less than 90%)	5 (Herbicidal ratio of 90% or more (almost completely withered))	5 (Herbicidal ratio of 90% or more (almost completely withered))	5 (Herbicidal ratio of 90% or more (almost completely withered))	3 (Herbicidal ratio of 40% or more and less than 70%)	
CCC(C)c1nnc2c(C(=O)Nc3nnc(C)o3)ccc(C(F)(F)F)n12 (stereo not drawn) [1-021]	2 (Herbicidal ratio of 20% or more and less than 40%)	5 (Herbicidal ratio of 90% or more (almost completely withered))	4 (Herbicidal ratio of 70% or more and less than 90%)	5 (Herbicidal ratio of 90% or more (almost completely withered))	4 (Herbicidal ratio of 70% or more and less than 90%)	5 (Herbicidal ratio of 90% or more (almost completely withered))	5 (Herbicidal ratio of 90% or more (almost completely withered))	5 (Herbicidal ratio of 90% or more (almost completely withered))	3 (Herbicidal ratio of 40% or more and less than 70%)	
C=CCSc1nnc2c(C(=O)Nc3nnco3)ccc(C(F)(F)F)n12 [1-128]										a: transplanted Oryza sativa (effect on crop grade) [1, 13]: 0 (Herbicidal ratio of 5% or less (almost no effect)); P (Stellaria media) herbicidal effect grade ([2]; Application herbicide amount 288 g/ha, foliage application): 5 (Herbicidal ratio of 90% or more (almost completely withered)); B: Scirpus juncoides (herbicidal effect grade) [3, 13]: 4 (Herbicidal ratio of 70% or more and less than 90%); A: Echinochloa oryzicola Vasing. (herbicidal effect grade) [4, 13]: 5 (Herbicidal ratio of 90% or more (almost completely withered)); C: Monochoria vaginalis (herbicidal effect grade) [5, 13]: 2 (Herbicidal ratio of 20% or more and less than 40%); E (herbicidal effect grade) [6, 14]: 3 (Herbicidal ratio of 40% or more and less than 70%); D (herbicidal effect grade) [7, 14]: 3 (Herbicidal ratio of 40% or more and less than 70%); H (herbicidal effect grade) [8, 14]: 4 (Herbicidal ratio of 70% or more and less than 90%); b (effect on crop grade) [9, 14]: 0 (Herbicidal ratio of 5% or less (almost no effect))
Cc1nnc(NC(=O)c2ccc(C(F)(F)F)n3c(-c4ccc(Cl)cc4)nnc23)o1 [1-017]	0 (Herbicidal ratio of 5% or less (almost no effect))	4 (Herbicidal ratio of 70% or more and less than 90%)	2 (Herbicidal ratio of 20% or more and less than 40%)	3 (Herbicidal ratio of 40% or more and less than 70%)	0 (Herbicidal ratio of 5% or less (almost no effect))	4 (Herbicidal ratio of 70% or more and less than 90%)	3 (Herbicidal ratio of 40% or more and less than 70%)	4 (Herbicidal ratio of 70% or more and less than 90%)	0 (Herbicidal ratio of 5% or less (almost no effect))	
COc1ccc(-c2nnc3c(C(=O)Nc4nnc(C)o4)ccc(C(F)(F)F)n23)cc1 [1-016]	0 (Herbicidal ratio of 5% or less (almost no effect))	5 (Herbicidal ratio of 90% or more (almost completely withered))	0 (Herbicidal ratio of 5% or less (almost no effect))	4 (Herbicidal ratio of 70% or more and less than 90%)	0 (Herbicidal ratio of 5% or less (almost no effect))	5 (Herbicidal ratio of 90% or more (almost completely withered))	5 (Herbicidal ratio of 90% or more (almost completely withered))	5 (Herbicidal ratio of 90% or more (almost completely withered))	1 (Herbicidal ratio of 5% or more and less than 20%)	

Reference: patent publication US9708314B2, “Heterocyclic amide compound” (NISSAN CHEMICAL INDUSTRIES, LTD., priority 2013, dated 2017)
